pEC50, pIC50: −log10 of the molar value.
Experiments:
human full length PDE3A = target: T1, human full length PDE3A (Homo sapiens, UniProt Q14432); experiment: PDE3A enzyme inhibition (3H-cAMP Scintillation Proximity Assay); format: biochemical; conditions: Sf9 cell extract, 60 min
T1 construct: Sf9 cells overexpressing human full length PDE3A (SB Drug Discovery, UK); purchased SB Drug Discovery, UK; host or cells: Sf9
Procedure: The commercially available ^3H-cAMP Scintillation Proximity Assay (SPA, Perkin Elmer) system was used for enzyme inhibition studies. For the determination of the in vitro effect of test substances on the PDE3A reactions 2 μl of the respective test compound solution in DMSO (serial dilutions) were placed in wells of microtiter plates (Isoplate-96/200W; Perkin Elmer). 50 μl of a dilution of PDE3A cell extract from Sf9 cells overexpressing human full length PDE3A (SB Drug Discovery, UK) in buffer A (50 mM Tris/HCl pH 7.5, 8.3 mM MgCl2, 1.7 mM EDTA, 0.2% BSA) was added. The dilution of the PDE3A cell extract was chosen such that the reaction kinetics was linear and less than 70% of the substrate was consumed (typical dilution 1:5000). The reaction was started by addition of 50 μl (0.025 μCi) of 1:2000 in buffer A w/o BSA diluted substrate [8-^3H] adenosine 3′, 5′-cyclic phosphate (1 μCi/μl; Perkin Elmer). After incubation at room temperature for 60 min, the reaction was stopped by addition of 25 μl of a suspension containing 18 mg/ml yttrium scintillation proximity beads (Perkin Elmer) in water. The microtiter plates were sealed and measured in a Microbeta scintillation counter (PerkinElmer Wallac). IC50 values were determined from sigmoidal curves by plotting percentage PDE3A activity vs log compound concentration.

SKMEL3 = experiment: Cell proliferation measurement (Cell Titer Glo, 72 h); format: cell-based; conditions: Homo sapiens, SK-MEL3, SKMEL3, melanoma
Procedure: (§1) The antiproliferative activity of the compounds of the general formula (I) was examined in vitro in human cancer cells. For this purpose, 1000 cells were plated in 384-well plates with appropriate growth medium and incubated at 37° C. overnight. After 24 h, cells on one plate (0 h plate) were treated with 30 μl/cavity of CTG solution (Promega Cell Titer Glo (catalogue #G755B and G756B)) and incubated at room temperature for 10 min, and luminescence was measured by means of a VICTOR V (Perkin Elmer), in order to determine cell viability on commencement of treatment. The cells on the test plate were treated with the compounds of the general formula (I) as and incubated at 37° C. for 72 h. The compounds were added to the cells by means of an HP D300 digital dispenser in a 10-step 2,5-fold dilution series. As control, the cells were treated with vehicle (DMSO at 0.3% final concentration). After 72 h, the cells were treated with 30 μl/cavity of CTG solution (Promega Cell Titer Glo (catalogue #G755B and G756B)) and incubated at room temperature for 10 min, and luminescence was measured by means of a VICTOR V (Perkin Elmer), in order to determine cell viability at the end of treatment. The percentage effect on cell growth and the IC50 derived therefrom were determined for each test substance using the values from the 0 h plate (=maximum inhibition) and the DMSO control (=minimum inhibition). The IC50 values were calculated using a 4-parameter fit.

HeLa = experiment: as above; format: cell-based; conditions: Homo sapiens, cervical cancer
Procedure: as §1

A549 = experiment: as above; format: cell-based; conditions: Homo sapiens, A549, lung adenocarcinoma
Procedure: as §1

PDE3B = target: T2, PDE3B (Homo sapiens, UniProt Q13370); experiment: PDE3B enzyme inhibition (reported with the 3H-cAMP SPA method); format: biochemical
T2 construct: Caliper (ran the assay)

HeLa cells [1] = experiment: Compound sensitivity testing in cell lines (cell viability, 48 h); format: cell-based, human; conditions: 48 h
Procedure: (§2) 1500 NCI-H1734 or 1000 A549 cells were plated in a 384-well plate in 40 μl of RPMI supplemented with 10% Fetal Bovine Serum and 1% Pen/Strep. 24 hours after plating, a compound-library of 1924 small molecules was added at a concentration of 10 μM. Staurosporine was used a positive control for cytotoxicity at a concentration of 10 μM, and DMSO was used a negative control at a concentration of 1%. All compounds were incubated for 48 hours with indicated small molecules. After 48 hours, 384-well plates were removed from the incubator and allowed to cool to room temperature for 20 minutes. Cell viability was assessed by adding 40 μl of a 25% CELLTITERGLO® (Promega) in PBS with a THERMO COMBI™ or multichannel-pipette and incubated for 10 minutes. The luminescence signal was read using a Perkin-Elmer EnVision. Viability percentage was calculated by normalizing to DMSO controls.
1000 HeLa (DMEM), 1000 A549 (RPMI), 500 MCF-7 (DMEM), 4000 PC3 (F12-K), 1000 NCI-H2122 (RPMI) or 1500 NCI-H1563 (RPMI) cells were plated in a 384-well plate in 40 μl of corresponding growth media supplemented with 10% Fetal Bovine Serum. 24 hours after plating, indicated compounds were added at indicated concentrations and incubated for 48 hours. Cell viability was assessed as described in Compound library screening in NCI-H1734 and A549 cell lines.

[2] = In vitro metabolic stability in cryopreserved human hepatocytes; format: in vitro ADME; conditions: 1 μM test compound
Procedure: Investigation of In Vitro Metabolic Stability in Cryopreserved Human Hepatocytes (Including Calculation of Hepatic In Vivo Blood Clearance (CL) and Maximal Oral Bioavailability (Fmax))
Cryopreserved Hepatocytes (e.g. purchased from Celsis InVitroTechnologies) were briefly thawed, washed with 45 mL pre-warmed in in vitro GRO HT medium and centrifuged for 5 min at 50×g. The cell pellet was resuspended in 5 ml of Krebs-Henseleit […] (KHB). Cell viability was determined by trypan blue exclusion.
For the metabolic stability assay liver cells were distributed in WME containing 5% FCS to glass vials at a density of 1.0×10^6 vital cells/ml. The test compound was added to a final concentration of 1 μM. During incubation, the hepatocyte suspensions were continuously shaken at 580 rpm and aliquots were taken at 2, 8, 16, 30, 45 and 90 min, to which equal volumes of cold methanol were immediately added. Samples were frozen at −20° C. over night, after subsequently centrifuged for 15 minutes at 3000 rpm and the supernatant was analyzed with an Agilent 1290 HPLC-system with LCMS/MS detection.
The half-life of a test compound was determined from the concentration-time plot. From the half-life the intrinsic clearances were calculated. […] The hepatic in vivo blood clearance (CL) and the maximal oral bioavailability (Fmax) was calculated.

NCI-H1734 = experiment: Compound library screening in NCI-H1734 and A549 cell lines; format: cell-based, human; conditions: NCI-H1734 versus A549, 48 h
Procedure: To identify anti-cancer compounds with cell-selective cytotoxic activity, an unbiased chemical screen was performed in two lung adenocarcinoma cell lines, A549 and NCI-H1734, both of which harbor oncogenic KRAS mutations and truncating STK11 mutations, and which were TP53 wild type and mutant (R273L), respectively. 1,924 compounds were screened from the Molecular Libraries Small-Molecule Repository validation set in the A549 and NCI-H1734 cell lines at a single concentration of 10 μM in 384-well format in duplicate. As a proxy for cellular viability, ATP content was measured after 48 hours of compound treatment.
as §2, with “After 48 hours, 384-well plates were removed from the incubator and allowed to cool to room temperature for 20 minutes.” left out

HeLa cells [3] = experiment: Caspase activity in HeLa cells (Caspase-Glo); format: cell-based, human; conditions: 48 h
Procedure: Thus one aspect of the invention is the use of DNMDP for the treatment of lung adenocarcinoma and cervical cancer.
1000 HeLa cells were plated in 384-well plate in 40 μl of corresponding growth media supplemented with 10% Fetal Bovine Serum. 24 hours after plating, indicated compounds were added at indicated concentrations and incubated for 48 hours. Caspase-Glo from Promega was added according to the manufacturers recommendations and luminescence was determined as described in Compound library screening in NCI-H1734 and A549 cell lines.

PDE3A(677-1141) = target: T3, PDE3A(677-1141) (Homo sapiens, UniProt Q14432); experiment: Differential scanning fluorimetry (DSF) binding to purified PDE3A catalytic domain; conditions: 5 μM PDE3A, 100 μM compound
T3 construct: purified PDE3A catalytic domain, PDE3A(677-1141)
Procedure: Binding buffer: 20 mM Hepes pH 7.4, 100 μM TCEP, 1 mM MgCl2, 150 mM NaCl.

PDE3A and SLFN12 complex = target: T4, PDE3A and SLFN12 complex (Homo sapiens, UniProt Q14432); experiment: DNMDP-induced PDE3A protein interactions by immunoprecipitation and immunoblotting; format: cell-based; conditions: HeLa cells, 10 μM, 4 hours
T4 construct: Immunoprecipitation of endogenous PDE3A in HeLa cells treated with DNMDP; host or cells: HeLa
Excerpt: Binding of DNMDP altered the composition of interacting proteins that were co-immunoprecipitated with PDE3A. […] These proteins specifically interacted with PDE3A in the presence of DNMDP, and were not observed in the trequinsin treated control, whereas a known PDE3B interactor, abhydrolase domain-containing protein 15 (ABHD15, Chavez et al., Biochem. Biophys. Res. Commun. 342, 1218-1222, 2006), was enriched in the immunoprecipitate from trequinsin-treated cells (FIG. 13C and FIG. 14C). The interaction promoted by DNMDP between PDE3A and both SIRT7 and SLFN12 was validated with affinity reagents. Immunoprecipitation of endogenous PDE3A in HeLa cells treated with DNMDP, but not DMSO or trequinsin, enhanced complex formation of ectopically expressed V5-tagged SIRT7 and SLFN12 with PDE3A, as evidenced by coimmunoprecipitation (FIG. 19). […] Without being bound to theory, PDE3A/SLFN12 complex formation correlated with cell killing (FIGS. 21A-21C).
HeLa cells were transfected with ORF overexpression constructs expressing V5-tagged SIRT7, V5-tagged SLFN12, or V5-tagged GFP. ORF expression constructs were obtained from the TRC (clone IDs: TRCN0000468231, TRCN0000476272, ccsbBroad304_99997). At 72 hours post transfection, cells were treated with 10 μM DNMDP or trequinsin for 4 hours followed by lysis using the ModRipa lysis buffer and immunoprecipitation of PDE3A. […]

T4 sequence (Q14432 whole entry): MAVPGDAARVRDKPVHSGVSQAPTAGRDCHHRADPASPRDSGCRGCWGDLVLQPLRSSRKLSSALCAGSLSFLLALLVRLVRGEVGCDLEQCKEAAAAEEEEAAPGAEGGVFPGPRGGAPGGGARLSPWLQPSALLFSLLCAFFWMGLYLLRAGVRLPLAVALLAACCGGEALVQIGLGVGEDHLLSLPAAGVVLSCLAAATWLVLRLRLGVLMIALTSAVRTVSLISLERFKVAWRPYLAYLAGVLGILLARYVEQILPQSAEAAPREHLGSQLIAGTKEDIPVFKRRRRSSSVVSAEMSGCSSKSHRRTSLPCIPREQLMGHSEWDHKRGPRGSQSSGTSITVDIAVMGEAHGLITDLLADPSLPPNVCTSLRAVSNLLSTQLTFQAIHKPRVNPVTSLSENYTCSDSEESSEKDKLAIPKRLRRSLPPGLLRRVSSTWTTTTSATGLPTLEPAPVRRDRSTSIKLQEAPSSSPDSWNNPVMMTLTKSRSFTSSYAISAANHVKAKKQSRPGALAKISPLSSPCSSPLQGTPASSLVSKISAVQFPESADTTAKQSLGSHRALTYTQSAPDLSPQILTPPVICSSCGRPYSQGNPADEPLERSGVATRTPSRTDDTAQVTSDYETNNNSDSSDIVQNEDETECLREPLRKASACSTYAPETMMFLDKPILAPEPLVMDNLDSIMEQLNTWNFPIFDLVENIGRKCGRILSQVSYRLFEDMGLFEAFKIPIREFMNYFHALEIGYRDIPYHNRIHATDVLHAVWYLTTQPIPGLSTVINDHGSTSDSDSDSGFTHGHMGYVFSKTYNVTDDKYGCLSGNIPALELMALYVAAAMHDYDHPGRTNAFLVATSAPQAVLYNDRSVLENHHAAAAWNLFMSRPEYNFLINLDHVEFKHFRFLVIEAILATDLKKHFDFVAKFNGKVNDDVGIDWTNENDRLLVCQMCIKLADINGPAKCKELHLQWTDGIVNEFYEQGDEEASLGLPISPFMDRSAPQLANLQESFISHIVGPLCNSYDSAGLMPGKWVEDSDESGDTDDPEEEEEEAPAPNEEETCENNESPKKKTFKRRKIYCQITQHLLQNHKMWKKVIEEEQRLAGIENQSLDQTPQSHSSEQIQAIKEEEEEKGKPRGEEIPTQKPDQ
T4 sequence (Q8IYM2 whole entry partner): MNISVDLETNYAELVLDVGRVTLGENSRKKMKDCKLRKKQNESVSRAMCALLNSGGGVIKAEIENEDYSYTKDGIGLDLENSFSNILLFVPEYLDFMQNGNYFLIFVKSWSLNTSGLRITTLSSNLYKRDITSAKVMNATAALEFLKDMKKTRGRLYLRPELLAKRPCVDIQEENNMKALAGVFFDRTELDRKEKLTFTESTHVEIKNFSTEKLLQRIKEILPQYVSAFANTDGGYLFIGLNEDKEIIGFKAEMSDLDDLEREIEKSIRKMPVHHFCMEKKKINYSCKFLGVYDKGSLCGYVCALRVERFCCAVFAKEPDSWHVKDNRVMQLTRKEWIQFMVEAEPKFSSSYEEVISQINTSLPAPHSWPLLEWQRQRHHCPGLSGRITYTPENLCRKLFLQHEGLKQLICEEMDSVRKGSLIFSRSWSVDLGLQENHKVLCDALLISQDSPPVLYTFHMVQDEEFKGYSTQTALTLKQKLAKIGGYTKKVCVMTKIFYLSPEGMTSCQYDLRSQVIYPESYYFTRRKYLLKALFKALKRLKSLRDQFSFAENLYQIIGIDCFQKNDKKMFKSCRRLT
T1 sequence (Q14432 whole entry): as the sequence (Q14432 whole entry) above
T3 sequence (Q14432 677-1141): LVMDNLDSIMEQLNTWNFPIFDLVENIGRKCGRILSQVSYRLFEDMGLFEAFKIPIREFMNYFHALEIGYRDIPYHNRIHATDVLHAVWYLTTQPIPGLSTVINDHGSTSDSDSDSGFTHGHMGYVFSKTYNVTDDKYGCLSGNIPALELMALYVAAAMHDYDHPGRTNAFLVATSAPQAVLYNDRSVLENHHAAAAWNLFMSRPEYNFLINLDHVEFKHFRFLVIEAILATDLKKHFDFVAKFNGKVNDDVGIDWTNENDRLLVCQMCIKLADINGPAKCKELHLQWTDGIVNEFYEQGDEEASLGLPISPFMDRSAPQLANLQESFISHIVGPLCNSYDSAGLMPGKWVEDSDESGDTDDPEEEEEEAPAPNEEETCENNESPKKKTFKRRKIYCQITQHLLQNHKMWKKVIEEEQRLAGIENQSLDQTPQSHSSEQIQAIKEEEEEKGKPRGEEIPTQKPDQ
T2 sequence (Q13370 whole entry, species assumed): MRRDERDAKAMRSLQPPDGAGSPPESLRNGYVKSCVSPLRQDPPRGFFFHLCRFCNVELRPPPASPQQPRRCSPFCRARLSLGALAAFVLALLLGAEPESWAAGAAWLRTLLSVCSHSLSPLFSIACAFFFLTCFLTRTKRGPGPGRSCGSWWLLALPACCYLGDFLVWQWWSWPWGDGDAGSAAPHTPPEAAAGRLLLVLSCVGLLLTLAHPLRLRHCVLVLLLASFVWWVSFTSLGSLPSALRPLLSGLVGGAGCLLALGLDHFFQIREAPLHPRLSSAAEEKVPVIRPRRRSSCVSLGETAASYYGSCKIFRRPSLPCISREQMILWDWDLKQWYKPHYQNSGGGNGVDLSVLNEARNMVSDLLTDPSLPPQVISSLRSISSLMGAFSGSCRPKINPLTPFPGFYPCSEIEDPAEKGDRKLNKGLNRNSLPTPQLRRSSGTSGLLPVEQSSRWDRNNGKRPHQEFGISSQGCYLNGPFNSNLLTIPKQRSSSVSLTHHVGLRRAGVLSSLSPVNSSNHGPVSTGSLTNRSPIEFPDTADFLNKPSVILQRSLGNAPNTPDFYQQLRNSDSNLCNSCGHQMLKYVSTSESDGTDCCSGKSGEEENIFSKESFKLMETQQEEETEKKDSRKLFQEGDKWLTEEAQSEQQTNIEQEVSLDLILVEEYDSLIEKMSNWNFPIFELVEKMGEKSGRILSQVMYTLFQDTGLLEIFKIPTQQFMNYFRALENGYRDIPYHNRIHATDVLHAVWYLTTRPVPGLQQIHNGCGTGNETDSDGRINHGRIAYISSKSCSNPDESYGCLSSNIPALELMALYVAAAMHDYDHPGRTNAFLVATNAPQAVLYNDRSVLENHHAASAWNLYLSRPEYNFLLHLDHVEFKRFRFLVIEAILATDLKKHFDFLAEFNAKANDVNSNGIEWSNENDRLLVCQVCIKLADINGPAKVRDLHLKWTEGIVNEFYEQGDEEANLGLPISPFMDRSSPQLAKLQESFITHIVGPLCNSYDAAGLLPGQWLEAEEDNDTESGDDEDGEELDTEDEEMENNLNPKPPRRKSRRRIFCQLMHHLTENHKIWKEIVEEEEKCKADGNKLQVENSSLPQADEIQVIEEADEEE

SMILES	pIC50 (human full length PDE3A)	pIC50 (SKMEL3)	pIC50 (HeLa)	pIC50 (A549)	pIC50 (PDE3B)	pEC50 (HeLa cells [1]; Homo sapiens)	mean metabolic stability (Fmax) [2] [%]	selective toxicity in dose-response retest (in words) (NCI-H1734)	caspase activity (apoptosis) (HeLa cells [3])	Tm (PDE3A(677-1141)) [°C]	EC70 HeLa cell viability (HeLa cells [1]) [nM]	PDE3A and SLFN12 complex formation (PDE3A and SLFN12 complex)
C[C@@H]1CC(=O)NN=C1c1cc(F)c(N2CCOCC2)c(Cl)c1 [Compound 6, (5R)-6-[3-chloro-5-fluoro-4-(morpholin-4-yl)phenyl]-5-methyl-4,5-dihydropyridazin-3(2H)-one]	8.62	9.36	9.49	< 6.22	8.47	8.96	93	–	–	–	–	–
CCN(CC)c1ccc(C2=NNC(=O)CC2C)cc1[N+](=O)[O-] (stereo not drawn) [DNMDP, 6-(4-(diethylamino)-3-nitrophenyl)-5-methyl-4,5-dihydropyridazin-3(2H)-one]	–	–	–	–	–	–	–	specifically toxic to the NCI-H1734 cell line	Caspase activity was detected	58.4 ± 0.0	30	induced PDE3A and SFLN12 complex formation

Source: patent US12053476B2, “Compounds, compositions and methods for cancer patient stratification and cancer treatment” (BAYER PHARMA AKTIENGESELLSCHAFT, priority 2016, dated 2024)
